Source: patent publication US20240024340A1, “Compositions and Methods For Treating Migraine” (priority 2020, published 2024)
“Also recorded” adds a separate entry of the source.

Legend:
[1] = tested on: BALB/c mice; assay type: in vivo; conditions: for effect on TST immobility compared to vehicle: Day 22 (FIG. 6B), imipramine 15 mg/kg, psilocybin 5 mg/kg Day 1, or both
Procedure: Imipraime (15 mg/kg) was given 1 hour before tail suspension testing on Day 22. […] For positive control, one group was given imipramine which is known to reduce immobility in TST in stressed mice.
Analysis: Simple comparisons between two groups were measured through inferential means.
Psilocybin loading dose was given 3-weeks prior to behavioral testing and imipramine was given 1-hour before testing on each testing day via Intraperitoneal injection (i.p, 5 ml/kg).

[2] = tested on: BALB/c mice; test: Tail suspension test (TST), depression; psilocybin loading dose then psilocybin+CBD+6 MB maintenance
[3] = tested on: BALB/c mice; test: Elevated plus maze (EPM), anxiety-like behavior

Row | Molecule | effect on TST immobility compared to vehicle [1] | immobile posture time in TST ([2]; Day 15, psilocybin loading dose 5 mg/kg on Day 1) | immobility time in TST ([2]; Day 22 (three weeks after 5 mg/kg loading dose of psilocybin), all groups receiving a loading dose) | depression (symptoms) in mouse model ([2]; loading dose psilocybin 5 mg/kg, alone or followed by maintenance psilocybin, CBD and 6 mushroom blend) | effect of psilocybin loading dose on anti-depressive properties of imipramine ([1]; psilocybin 5 mg/kg Day 1, imipramine 15 mg/kg one hour before TST on Day 22 or Day 29) | percentage of time spent in open space / open arms of the EPM ([3]; Day 14, two weeks after loading dose of 5 mg/kg psilocybin, vs vehicle control, 5 mg/kg) | anxiety (symptoms) in mouse model ([3]; loading dose psilocybin 5 mg/kg, alone or followed by low dose psilocybin, CBD and 6 mushroom blend)
1 | CN(C)CCCN1c2ccccc2CCc2ccccc21 [imipramine] | anti-depressant effect | – | – | – | – | – | –
2 | [3-(2-dimethylaminoethyl)-1H-indol-4-yl] dihydrogen phosphate [psilocybin] | anti-depressant effect | decreased | significantly lower; also recorded: significant decrease | decreased | potentiate | significantly increased; also recorded: more time | decreased
